Source: patent publication US20180258064A1, “SOLID FORMS OF 3-(5-AMINO-2-METHYL-4-OXO-4H-QUINAZOLIN-3-YL)-PIPERIDINE-2,6-DIONE, AND THEIR PHARMACEUTICAL COMPOSITIONS AND USES” (Celgene Corporation, priority 2017, published 2018)
Structures can show the parent of a compound that is named as a salt.

What was measured:
[1] = Post-DVS XRPD (solid form after the DVS cycle); format: physicochemical; conditions: XRPD pattern after DVS
Text: The Rigaku Smart-Lab X-ray diffraction system was configured for reflection Bragg-Brentano geometry using a line source X-ray beam. The x-ray source is a Cu Long Fine Focus tube that was operated at 40 kV and 44 mA. That source provides an incident beam profile at the sample that changes from a narrow line at high angles to a broad rectangle at low angles. Beam conditioning slits are used on the line X-ray source to ensure that the maximum beam size is less than 10 mm both along the line and normal to the line. The Bragg-Brentano geometry is a para-focusing geometry controlled by passive divergence and receiving slits with the sample itself acting as the focusing component for the optics. The inherent resolution of Bragg-Brentano geometry is governed in part by the diffractometer radius and the width of the receiving slit used. Typically, the Rigaku Smart-Lab is operated to give peak widths of 0.1° 2θ or less. The axial divergence of the X-ray beam is controlled by 5.0° Soller slits in both the incident and diffracted beam paths. Powder samples were prepared in a low background Si holder using light manual pressure to keep the sample surfaces flat and level with the reference surface of the sample holder. Each sample was analyzed from 2 to 40° 2θ using a continuous scan of 6° 2θ per minute with an effective step size of 0.02° 2θ. DVS analysis was carried out using a TA Instruments Q5000 Dynamic Vapor Sorption analyzer. The instrument was calibrated with standard weights and a sodium bromide standard for humidity. Approximately 10-25 mg of sample was loaded into a metalcoated quartz pan for analysis. The sample was analyzed at 25° C. with a maximum equilibration time of one hour in 10% relative humidity (RH) steps from 5 to 95% RH (adsorption cycle) and from 95 to 5% RH (desorption cycle). The movement from one step to the next occurred either after satisfying the equilibrium criterion of 0.01% weight change or, if the equilibrium criterion was not met, after one hour. The percent weight change values were calculated using Microsoft Excel®.

[2] = Dynamic Vapor Sorption (DVS); format: physicochemical; conditions: for DVS weight gain from 5 to 95% RH / DVS weight loss from 95 to 5% RH / DVS weight loss upon drying at 5% RH: 25° C.; for DVS weight gain from 5 to 95% RH: adsorption cycle 5 to 95% RH; for DVS weight loss from 95 to 5% RH: desorption cycle 95 to 5% RH
Protocol: DVS analysis was carried out using a TA Instruments Q5000 Dynamic Vapor Sorption analyzer. The instrument was calibrated with standard weights and a sodium bromide standard for humidity. Approximately 10-25 mg of sample was loaded into a metalcoated quartz pan for analysis. The sample was analyzed at 25° C. with a maximum equilibration time of one hour in 10% relative humidity (RH) steps from 5 to 95% RH (adsorption cycle) and from 95 to 5% RH (desorption cycle). The movement from one step to the next occurred either after satisfying the equilibrium criterion of 0.01% weight change or, if the equilibrium criterion was not met, after one hour. The percent weight change values were calculated using Microsoft Excel®.

[3] = listed as Form A of the besylate salt of Compound 1
[4] = listed as Form A of the mesylate salt of Compound 1
[5] = listed as Form A of the sulfate salt of Compound 1
[6] = listed as Form A of the tosylate salt of Compound 1

## Cc1nc2cccc(N)c2c(=O)n1C1CCC(=O)NC1=O (centres unmarked) [Compound 1 besylate salt Form A, 3-(5-amino-2-methyl-4-oxo-4H-quinazolin-3-yl)-piperidine-2,6-dione]
[1]; listed as Besylate Form A
  Post-DVS XRPD: Unchanged
[2]; listed as Besylate Form A
  DVS weight gain from 5 to 95% RH: 4.31% gain from 5 to 95% RH
  DVS weight loss from 95 to 5% RH: 4.31% loss from 95 to 5% RH
  DVS weight loss upon drying at 5% RH: 0.16% loss upon drying at 5% RH
[2]; [3]
  DVS weight gain from 5 to 95% RH: about 4.31%
  DVS weight loss from 95 to 5% RH: about 4.31%
[2]; wording in text, based on DVS
  hygroscopicity: moderately hygroscopic

## Cc1nc2cccc(N)c2c(=O)n1C1CCC(=O)NC1=O (centres unmarked) [Compound 1 mesylate salt Form A, 3-(5-amino-2-methyl-4-oxo-4H-quinazolin-3-yl)-piperidine-2,6-dione]
[1]; listed as Mesylate Form A
  Post-DVS XRPD: Mesylate Form B
[2]; [4]
  DVS weight gain from 5 to 95% RH: about 9.79%
  DVS weight loss from 95 to 5% RH: about 7.98%
[2]; listed as Mesylate Form A
  DVS weight gain from 5 to 95% RH: 9.79% gain from 5 to 95% RH
  DVS weight loss from 95 to 5% RH: 7.98% loss from 95 to 5% RH
  DVS weight loss upon drying at 5% RH: 0.17% loss upon drying at 5% RH

## Cc1nc2cccc(N)c2c(=O)n1C1CCC(=O)NC1=O (centres unmarked) [Compound 1 sulfate salt Form A, 3-(5-amino-2-methyl-4-oxo-4H-quinazolin-3-yl)-piperidine-2,6-dione]
[1]
  Post-DVS XRPD: unchanged
[1]; listed as Sulfate Form A
  Post-DVS XRPD: Unchanged
[2]; [5]
  DVS weight gain from 5 to 95% RH: about 5.36%
  DVS weight loss from 95 to 5% RH: about 5.63%
[2]; listed as Sulfate Form A
  DVS weight gain from 5 to 95% RH: 5.36% gain from 5 to 95% RH
  DVS weight loss from 95 to 5% RH: 5.63% loss from 95 to 5% RH
  DVS weight loss upon drying at 5% RH: 0.21% loss on drying at 5% RH

## Cc1nc2cccc(N)c2c(=O)n1C1CCC(=O)NC1=O (centres unmarked) [Compound 1 tosylate salt Form A, 3-(5-amino-2-methyl-4-oxo-4H-quinazolin-3-yl)-piperidine-2,6-dione]
[1]; listed as Tosylate Form A
  Post-DVS XRPD: Tosylate form B
[2]; [6]
  DVS weight gain from 5 to 95% RH: about 1.15%
  DVS weight loss from 95 to 5% RH: about 1.17%
[2]; listed as Tosylate Form A
  DVS weight gain from 5 to 95% RH: 1.15% gain from 5 to 95% RH
  DVS weight loss from 95 to 5% RH: 1.17% loss from 95 to 5% RH
  DVS weight loss upon drying at 5% RH: 0.14% loss upon drying at 5%
